Activity calls are given as the source filed them. No cut-off for these calls is given here.
How the values were obtained:
Saccharomyces cerevisiae [1] = assay: DNA damaging activity against DNA repair-deficient RS 322YK (rad 52Y) yeast assessed as drug concentration required to produce 12 mm zone of inhibition; assay type: functional
Saccharomyces cerevisiae [2] = assay: DNA damaging activity against DNA repair-deficient RS 188N (RAD+) yeast assessed as drug concentration required to produce 12 mm zone of inhibition; assay type: functional
Saccharomyces cerevisiae [3] = assay: DNA damaging activity against DNA repair-deficient RS 321 yeast assessed as drug concentration required to produce 12 mm zone of inhibition; assay type: functional
Saccharomyces cerevisiae [4] = assay: DNA damaging activity against DNA repair-deficient RS 167N (rad6) yeast assessed as drug concentration required to produce 12 mm zone of inhibition; assay type: functional
Saccharomyces cerevisiae [5] = assay: DNA damaging activity against DNA repair-deficient RS 167N (rad6) yeast assessed as drug concentration required to produce 12 mm zone of inhibition up to 8000 ug/mL; assay type: functional, organism-based
Saccharomyces cerevisiae [6] = assay: DNA damaging activity against DNA repair-deficient RS 188N (RAD+) yeast assessed as drug concentration required to produce 12 mm zone of inhibition up to 8000 ug/mL; assay type: functional, organism-based
Saccharomyces cerevisiae [7] = assay: DNA damaging activity against DNA repair-deficient RS 322YK (rad 52Y) yeast assessed as drug concentration required to produce 12 mm zone of inhibition up to 8000 ug/mL; assay type: functional, organism-based
Saccharomyces cerevisiae [8] = assay: DNA damaging activity against DNA repair-deficient RS 321 yeast assessed as drug concentration required to produce 12 mm zone of inhibition up to 8000 ug/mL; assay type: functional, organism-based

SMILES | IC12 (Saccharomyces cerevisiae [1]) [µg/mL] | IC12 (Saccharomyces cerevisiae [2]) [µg/mL] | IC12 (Saccharomyces cerevisiae [3]) [µg/mL] | IC12 (Saccharomyces cerevisiae [4]) [µg/mL] | Activity (Saccharomyces cerevisiae [5]) | Activity (Saccharomyces cerevisiae [6]) | Activity (Saccharomyces cerevisiae [7]) | Activity (Saccharomyces cerevisiae [8])
CC[C@@]1(O)C(=O)OCc2c1cc1n(c2=O)Cc2cc3ccccc3nc2-1 [CAMPTOTHECIN] | 0.9 | 100 | – | – | – | – | – | –
C[C@@H]1CC[C@]2(NC1)O[C@H]1C[C@H]3[C@@H]4CC=C5C[C@@H](O)CC[C@]5(C)[C@H]4CC[C@]3(C)[C@H]1[C@@H]2C [SOLASODINE] | 5 | > 6.1 | 1.9 | > 10 | – | – | – | –
CC(=O)O[C@H]1CC[C@@]2(C)C(=CC[C@H]3[C@@H]4C[C@@H]5O[C@@]6(CC[C@@H](C)CN6)[C@@H](C)[C@@H]5[C@@]4(C)CC[C@@H]32)C1 | 21 | 15.7 | 3 | 30 | – | – | – | –
C[C@@H]1CC[C@]2(NC1)O[C@H]1C[C@H]3[C@@H]4CC=C5C[C@@H](O[C@@H]6O[C@H](CO)[C@@H](O)[C@H](O)[C@H]6O)CC[C@]5(C)[C@H]4CC[C@]3(C)[C@H]1[C@@H]2C | – | – | – | – | inactive | inactive | inactive | inactive
CC(=O)O[C@H]1CC[C@@]2(C)C(=CC[C@H]3[C@@H]4C[C@@H]5O[C@@]6(CC[C@@H](C)CN6C(C)=O)[C@@H](C)[C@@H]5[C@@]4(C)CC[C@@H]32)C1 | – | – | – | – | inactive | inactive | inactive | inactive
CC(=O)N1C[C@H](C)CC[C@@]12O[C@H]1C[C@H]3[C@@H]4CC=C5C[C@@H](O)CC[C@]5(C)[C@H]4CC[C@]3(C)[C@H]1[C@@H]2C | – | – | – | – | inactive | inactive | inactive | inactive
